In patent US8987273B2, “Substituted imidazo[1,2-B]pyridazines” (Bayer Intellectual Property GmbH, priority 2010, dated 2015):

Tests used:
KPL-4 cells = experiment: Tumor cell proliferation assay (CellTiter-Glo); format: cell-based; settings: KPL4; 72 h drug exposure
[1] = molecular target: His-tagged human recombinant kinase full-length Akt1 (Homo sapiens (Human), UniProt P31749); experiment: Akt1 kinase assay (TR-FRET); format: biochemical; settings: 10 μM ATP; median
Summary of the method: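 Full-length His-tagged human Akt1 from insect cells, pre-incubated 15 min with compound, then 60 min at 22° C with 10 μM ATP and 1 μM biotinylated peptide in pH 7.5 TRIS buffer. Phosphopeptide detected by HTRF (665/620 nm ratio); data normalised to no-inhibitor and no-enzyme controls.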

[2] = molecular target: His-tagged human recombinant kinase full-length Akt2 (Homo sapiens (Human), UniProt P31751); experiment: Akt2 kinase assay (TR-FRET); format: biochemical; settings: 10 μM ATP; median
His-tagged human recombinant kinase full-length Akt2, sequence (P31751 whole entry): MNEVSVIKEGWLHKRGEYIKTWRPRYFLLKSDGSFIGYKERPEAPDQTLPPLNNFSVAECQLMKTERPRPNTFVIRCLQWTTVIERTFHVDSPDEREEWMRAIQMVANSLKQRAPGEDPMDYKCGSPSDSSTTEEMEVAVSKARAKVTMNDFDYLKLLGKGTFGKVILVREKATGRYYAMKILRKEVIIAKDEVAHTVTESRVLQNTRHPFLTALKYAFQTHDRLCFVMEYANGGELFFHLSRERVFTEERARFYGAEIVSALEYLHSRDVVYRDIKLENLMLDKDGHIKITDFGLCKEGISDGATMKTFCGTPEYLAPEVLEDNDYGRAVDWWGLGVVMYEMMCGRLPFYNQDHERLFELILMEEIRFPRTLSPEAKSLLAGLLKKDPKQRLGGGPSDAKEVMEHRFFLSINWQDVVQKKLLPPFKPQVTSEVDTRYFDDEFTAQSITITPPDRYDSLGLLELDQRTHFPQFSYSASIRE
Summary of the method: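 PDK1-activated full-length His-Akt2 (insect-cell expressed, ~0.2 ng/μl final) pre-incubated with compound 15 min, then reacted 60 min at 22 °C with 10 μM ATP and 1 μM biotinylated peptide in Tris pH 7.5/MgCl2/DTT. EDTA stop; phospho-peptide read by HTRF 665/620 ratio, normalised to no-inhibitor and no-enzyme controls.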

[3] = system: phospho-AKT at S473 in KPL4 breast tumour cell line; experiment: Cellular p-AKT1/2/3-S473 assay; format: cell-based; settings: KPL4 cells, 2 hours treatment; median; read-out: pAKT-S743 median IC50

His-tagged human recombinant kinase full-length Akt1, sequence (P31749 whole entry): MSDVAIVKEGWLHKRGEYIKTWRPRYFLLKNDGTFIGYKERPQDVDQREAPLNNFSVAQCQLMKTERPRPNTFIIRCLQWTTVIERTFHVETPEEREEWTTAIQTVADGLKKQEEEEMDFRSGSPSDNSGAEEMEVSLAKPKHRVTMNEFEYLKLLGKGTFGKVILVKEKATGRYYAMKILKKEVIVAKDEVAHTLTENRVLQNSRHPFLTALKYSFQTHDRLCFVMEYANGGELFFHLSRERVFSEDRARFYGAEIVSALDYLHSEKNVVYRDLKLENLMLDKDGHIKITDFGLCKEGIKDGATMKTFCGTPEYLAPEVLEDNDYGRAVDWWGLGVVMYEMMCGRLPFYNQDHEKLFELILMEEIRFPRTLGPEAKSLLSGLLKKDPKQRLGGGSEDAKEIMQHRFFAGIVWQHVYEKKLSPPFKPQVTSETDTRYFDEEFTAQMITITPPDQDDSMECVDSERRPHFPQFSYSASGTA

Cc1nc2cc(-c3ccccc3)c(-c3ccc(C4(N)CCC4)cc3)nn2c1-c1ccc(C(N)=O)cc1 [Example 5-4, 4-{6-[4-(1-Amino-cyclobutyl)-phenyl]-2-methyl-7-phenyl-imidazol[1,2-b]pyridazin-3-yl}-benzamide]
IC50 (KPL-4 cells): 2.38 µM
IC50 [1]: 12.1 µM
IC50 [2]: 4.82 µM
IC50 [3]: 10 µM

Cc1nc2cc(-c3ccccc3)c(-c3ccc(C4(N)CCC4)cc3)nn2c1-c1ccc(F)c(CO)c1 [Example 5-1, (5-{6-[4-(1-Amino-cyclobutyl)-phenyl]-2-methyl-7-phenyl-imidazo[1,2-b]pyridazin-3-yl}-2-fluorophenyl)-methanol]
IC50 (KPL-4 cells): 2.11 µM
IC50 [1]: 10.1 µM
IC50 [2]: 16.7 µM
IC50 [3]: 10 µM
